Experimental data taken from patent US20040106653A1, “Aminoalcohol derivatives” (FUJISAWA PHARMACEUTICAL CO., LTD., priority 2002, published 2004).

Test system: carbachol-induced increase in intravesical pressure (IVP) in anesthetized dog
Assay: Effect on the increase in intravesical pressure induced by carbachol in anesthetized dog
Type: in vivo
Conditions: 0.032 mg/kg, intravenous; female Beagle dogs under halothane anesthesia; carbachol 1.8 μg/kg
Description: Effect on the increase in intravesical pressure induced by carbachol in anesthetized dog Test Method Female Beagle dogs weighing 8.0-15.0 kg were fasted for 24 hours and maintained under halothane anesthesia. A 12F Foley catheter was lubricated with water soluble jelly, inserted into the urethral orifice and advanced approximately 10 cm until the balloon tip was placed well inside the bladder. The balloon was then inflated with 5 ml of room air and catheter slowly withdrawn just part the first resistance that is felt at the bladder neck. Urine was completely drained out through the catheter, and 30 ml of biological saline was infused. The catheter was connected to pressure transducer, and intravesical pressure was continuously recorded. Intravenous administration of test compound (I) inhibited carbachol (1.8 μg/kg)-induced increase in intravesical pressure (IVP).

Structure (SMILES): C[C@H](Cc1ccc(S(=O)(=O)c2ccc(C(=O)N(C)CC(=O)O)cc2)cc1)NC[C@H](O)c1cccc(Cl)c1.Cl [Test Compound (1), [[4-[[4-[(2R)-2-[[(2R)-2-(3-Chlorophenyl)-2-hydroxyethyl]amino]propyl]phenyl]sulfonyl]benzoyl]-(methyl)amino]acetic acid hydrochloride]
- % inhibition of carbachol-induced increase in IVP: 80.8%
